pIC50: −log10 of the molar value. Read-outs that look alike come from different tables or passages of the source.
Key:
[1] = target: T1, LAT1 (Homo sapiens, UniProt Q01650); details: cited from earlier work
Target sequence in this assay (Q01650 whole entry, species assumed): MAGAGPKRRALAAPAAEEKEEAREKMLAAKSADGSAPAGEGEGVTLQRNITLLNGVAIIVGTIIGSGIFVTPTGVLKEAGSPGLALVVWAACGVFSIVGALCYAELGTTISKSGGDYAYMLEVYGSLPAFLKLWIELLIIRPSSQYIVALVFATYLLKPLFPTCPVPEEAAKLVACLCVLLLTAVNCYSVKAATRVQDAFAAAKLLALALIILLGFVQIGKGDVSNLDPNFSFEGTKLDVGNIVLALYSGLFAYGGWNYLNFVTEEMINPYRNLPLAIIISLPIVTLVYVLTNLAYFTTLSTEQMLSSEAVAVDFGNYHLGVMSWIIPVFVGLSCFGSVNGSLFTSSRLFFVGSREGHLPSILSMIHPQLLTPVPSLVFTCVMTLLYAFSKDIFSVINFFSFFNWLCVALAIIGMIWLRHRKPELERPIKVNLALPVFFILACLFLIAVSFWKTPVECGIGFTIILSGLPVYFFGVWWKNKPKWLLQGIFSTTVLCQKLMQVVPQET
Target sequence in this assay (P08195 102-630 partner, species assumed): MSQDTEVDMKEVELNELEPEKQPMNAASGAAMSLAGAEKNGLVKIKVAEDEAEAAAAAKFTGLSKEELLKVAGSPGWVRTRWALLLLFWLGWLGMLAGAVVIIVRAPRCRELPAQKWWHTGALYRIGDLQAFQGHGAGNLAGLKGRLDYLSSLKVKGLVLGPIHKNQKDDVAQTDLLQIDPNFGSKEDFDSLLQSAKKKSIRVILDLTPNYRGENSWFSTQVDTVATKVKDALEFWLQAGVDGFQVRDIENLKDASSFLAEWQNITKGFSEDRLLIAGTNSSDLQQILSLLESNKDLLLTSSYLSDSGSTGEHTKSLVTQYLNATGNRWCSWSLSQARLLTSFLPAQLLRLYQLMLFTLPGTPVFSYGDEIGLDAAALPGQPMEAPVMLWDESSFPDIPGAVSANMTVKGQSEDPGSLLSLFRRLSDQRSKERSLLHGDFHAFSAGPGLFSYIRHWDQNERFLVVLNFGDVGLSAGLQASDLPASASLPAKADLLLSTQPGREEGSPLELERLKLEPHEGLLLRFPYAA

[2] = target: T2, LAT1 transporter (Homo sapiens, UniProt Q01650); test: KB cell competition assay with 14C-gabapentin; type: cell-based
T2 construct: KB cells endogenously expressing LAT1; endogenous in cells; host or cells: KB cells
Description: To increase the throughput of LAT1 compound screening, a mammalian cell assay was developed. Because LAT1 mRNA is expressed at detectable levels in many cancer cell lines, over 20 human cell lines were screened for LAT1 expression using quantitative PCR. Cell lines included A498, A549, ASPC, CALU, CAPAN, DLD, DU145, H69AR, HCT8, HEK, HELA, HEPG2, HL60, JAR, JUR, KB, LOVO, MCF7, PANC1, PC3, and SW48.
To determine whether a compound interacts with the LAT1 transporter, a competition-binding assay was developed. The assay measures how different concentrations of a test compound block the uptake of a radiolabeled substrates such as ^14C-L-dopa or ^14C-gabapentin. The half-maximal inhibitory concentration (IC50) for inhibition of transport of a substrate by a test compound is an indication of the affinity of the test compound for the LAT1 transporter. Competition binding studies were performed as follows. KB cells were plated in 96-well plates at 100,000 cells/well and incubated for 24 hours at 37° C. Radiolabeled ^14C-gabapentin (˜50,000 cpm/well) was added to each well in the presence and absence of various concentrations of test compound in duplicate or triplicate. Plates were incubated at room temperature for 20 min. Excess radiolabeled substrate was removed and cells were washed three times with a 96-well plate washer with cold assay buffer. Scintillation fluid was added to each well, the plates were sealed and counted in a 96-well plate-based scintillation counter. Data were graphed and analyzed using non-linear regression analysis with Prism Software (GraphPad, Inc., San Diego, Calif.).

[3] = target: T3, hLAT1 (Homo sapiens, UniProt P08195+Q01650); test: LAT1 competition uptake assay in HEK-TREx-LAT1-4F2hc cells with 3H-gabapentin; type: cell-based
T3 construct: expressed in transfected cells
T3 sequence (Q01650+P08195 fused): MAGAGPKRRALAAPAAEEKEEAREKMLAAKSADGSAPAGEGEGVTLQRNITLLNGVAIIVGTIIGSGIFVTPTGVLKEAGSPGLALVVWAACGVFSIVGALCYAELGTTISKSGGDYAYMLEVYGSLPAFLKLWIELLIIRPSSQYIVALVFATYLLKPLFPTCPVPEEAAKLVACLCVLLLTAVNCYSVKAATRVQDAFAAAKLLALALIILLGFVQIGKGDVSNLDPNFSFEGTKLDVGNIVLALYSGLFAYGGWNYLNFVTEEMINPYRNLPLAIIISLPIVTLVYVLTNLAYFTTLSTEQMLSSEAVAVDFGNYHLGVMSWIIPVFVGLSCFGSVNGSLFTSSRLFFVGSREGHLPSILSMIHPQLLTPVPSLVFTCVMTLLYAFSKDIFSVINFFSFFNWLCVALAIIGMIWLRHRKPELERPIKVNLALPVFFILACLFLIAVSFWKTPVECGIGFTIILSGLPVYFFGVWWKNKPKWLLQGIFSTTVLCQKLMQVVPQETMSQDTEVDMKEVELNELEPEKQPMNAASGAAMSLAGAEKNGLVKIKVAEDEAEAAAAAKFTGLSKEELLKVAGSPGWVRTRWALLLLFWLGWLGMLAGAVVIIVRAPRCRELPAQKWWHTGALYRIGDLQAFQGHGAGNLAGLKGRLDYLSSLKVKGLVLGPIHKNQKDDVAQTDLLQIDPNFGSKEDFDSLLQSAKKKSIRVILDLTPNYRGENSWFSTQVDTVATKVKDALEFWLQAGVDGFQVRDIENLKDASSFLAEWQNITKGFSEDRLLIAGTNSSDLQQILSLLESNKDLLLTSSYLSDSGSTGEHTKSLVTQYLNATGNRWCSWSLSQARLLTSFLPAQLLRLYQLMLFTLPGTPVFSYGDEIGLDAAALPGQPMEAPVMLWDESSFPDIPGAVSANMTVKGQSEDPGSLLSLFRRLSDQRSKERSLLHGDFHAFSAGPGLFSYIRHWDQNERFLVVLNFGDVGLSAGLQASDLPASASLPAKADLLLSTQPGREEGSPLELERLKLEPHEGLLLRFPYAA
Protocol: The plates were incubated at room temperature for 15 minutes.

[4] = target: T3, hLAT1; test: LAT1 direct uptake assay in HEK-TREx-LAT1-4F2hc cells (LC-MS-MS); type: cell-based; details: read-out: Km or IC50, Direct Uptake
Protocol: Four concentrations (bracketing the affinity as measured by competition assays) per compound were routinely tested.
Typically, four concentrations bracketing the IC50 were tested. The highest test concentration for each compound was made in an eppendorf tube and diluted into HBSS. The samples were robustly vortexed and centrifuged for 10 minutes at 13,200 rpm to spin down any precipitate. […] Three additional 2-fold dilutions were made in the subsequent rows (B-D or […]) in HBSS.
Alternatively, cells were washed manually with equivalent volumes using a multichannel pipettor.
The plate was incubated at room temperature for 10 minutes.
120 μl of the cell extract was removed from each well and transferred to a fresh 96-well v-bottom polypropylene plate. […] 10 μl of the 50 μM propranolol solution was added to each well of a fresh 96-well plate (a plate amenable for sampling in the LC-MS-MS).

[5] = target: T1, LAT1; details: Literature; LAT1-expressing oocytes; cited from earlier work
Target sequence in this assay (Q01650 whole entry, species assumed): as the sequence (Q01650 whole entry, species assumed) above
Target sequence in this assay (P08195 102-630 partner, species assumed): as the sequence (P08195 102-630 partner, species assumed) above

[6] = target: T1, LAT1; test: KB cell direct uptake assay (LC-MS-MS); details: read-out: Km or IC50, Direct Uptake; KB cells; 5 min
[7] = target: T1, LAT1; test: Oocyte direct uptake assay (LC-MS-MS), oocytes expressing hLAT1 and 4F2hc; type: cell-based; design: expressed in transfected cells; host or cells: Xenopus oocytes injected with cRNA
Description: To assess transport function of a specific transporter protein, it can be desirable to clone the cDNA and express the protein in cells that have low endogenous transport activity. Human LAT1 was cloned by PCR, fully sequenced, and subcloned into plasmids that can be used for expression in mammalian cells or Xenopus oocytes. The co-subunit required for LAT1 function, 4F2HC (Genbank accession AB018010), was also cloned and sequenced. Unless otherwise noted, 4F2HC was also co-expressed in each heterologous system described in the example. […] For expression in Xenopus oocytes, in vitro LAT1 and 4F2HC cRNA was prepared and injected into defoliculated oocytes.
To measure directly the uptake of possible substrates, an oocyte uptake assay in which compounds are measured by mass spectroscopy was developed. To illustrate this approach, uptake assays of gabapentin and L-dopa were performed. Oocytes used in this experiment were injected with LAT1 cRNA and incubated at 16-18° C. until maximal transporter expression was reached. Oocytes from the same batch, which were not injected with cRNA, were used in the experiment to serve as a control. […] Following the incubation, the pools of oocytes were washed 4 times with 0.5% BSA ND96 buffer and separated into 2 oocyte subpools containing 4 oocytes each. Subpools were homogenized in 150 μl of ice cold 80% MeOH/H2O, and lysed manually with a P200 pipettor. Lysates were vortexed briefly before being spun in a 4° C. tabletop centrifuge at 13.2 krpm for 15 minutes. Approximately 110 μl of lysate was removed from the eppendorf tubes and placed in a 96-well plate. Lysates were analyzed for gabapentin and L-dopa by liquid chromatography-mass spectroscopy.
Samples were analyzed by LC-MS-MS as follows. […] Analyte fragmentation peaks were integrated using Analyst 1.2 quantitation software, and concentrations were calculated using a calibration curve of signals produced by known concentrations of the compound.
Target sequence in this assay (Q01650 whole entry): as the sequence (Q01650 whole entry, species assumed) above
Target sequence in this assay (as listed by the source partner): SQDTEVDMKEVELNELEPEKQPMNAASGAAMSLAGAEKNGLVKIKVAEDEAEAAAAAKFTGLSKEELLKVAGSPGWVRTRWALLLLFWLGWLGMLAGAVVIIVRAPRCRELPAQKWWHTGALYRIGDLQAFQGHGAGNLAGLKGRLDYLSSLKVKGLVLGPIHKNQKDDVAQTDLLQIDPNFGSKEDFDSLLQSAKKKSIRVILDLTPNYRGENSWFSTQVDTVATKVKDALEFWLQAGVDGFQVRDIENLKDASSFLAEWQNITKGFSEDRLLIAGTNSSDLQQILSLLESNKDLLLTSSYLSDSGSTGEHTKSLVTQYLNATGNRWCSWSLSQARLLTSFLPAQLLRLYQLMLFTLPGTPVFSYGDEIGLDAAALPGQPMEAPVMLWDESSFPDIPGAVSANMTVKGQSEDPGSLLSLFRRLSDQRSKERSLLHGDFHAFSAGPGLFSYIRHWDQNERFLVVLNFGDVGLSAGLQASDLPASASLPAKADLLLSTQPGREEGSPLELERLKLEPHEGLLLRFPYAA

[8] = target: T1, LAT1; test: Radiolabel uptake into Xenopus oocytes expressing LAT1 and 4F2HC; type: cell-based; design: expressed in transfected cells; host or cells: Xenopus oocytes injected with cRNA; details: FIG. 2
[9] = target: PgP (Homo sapiens, UniProt P08183); test: Cellular transwell monolayer efflux assay, MDCK cells with TREx-PgP
Chain of PgP (P08183 whole entry): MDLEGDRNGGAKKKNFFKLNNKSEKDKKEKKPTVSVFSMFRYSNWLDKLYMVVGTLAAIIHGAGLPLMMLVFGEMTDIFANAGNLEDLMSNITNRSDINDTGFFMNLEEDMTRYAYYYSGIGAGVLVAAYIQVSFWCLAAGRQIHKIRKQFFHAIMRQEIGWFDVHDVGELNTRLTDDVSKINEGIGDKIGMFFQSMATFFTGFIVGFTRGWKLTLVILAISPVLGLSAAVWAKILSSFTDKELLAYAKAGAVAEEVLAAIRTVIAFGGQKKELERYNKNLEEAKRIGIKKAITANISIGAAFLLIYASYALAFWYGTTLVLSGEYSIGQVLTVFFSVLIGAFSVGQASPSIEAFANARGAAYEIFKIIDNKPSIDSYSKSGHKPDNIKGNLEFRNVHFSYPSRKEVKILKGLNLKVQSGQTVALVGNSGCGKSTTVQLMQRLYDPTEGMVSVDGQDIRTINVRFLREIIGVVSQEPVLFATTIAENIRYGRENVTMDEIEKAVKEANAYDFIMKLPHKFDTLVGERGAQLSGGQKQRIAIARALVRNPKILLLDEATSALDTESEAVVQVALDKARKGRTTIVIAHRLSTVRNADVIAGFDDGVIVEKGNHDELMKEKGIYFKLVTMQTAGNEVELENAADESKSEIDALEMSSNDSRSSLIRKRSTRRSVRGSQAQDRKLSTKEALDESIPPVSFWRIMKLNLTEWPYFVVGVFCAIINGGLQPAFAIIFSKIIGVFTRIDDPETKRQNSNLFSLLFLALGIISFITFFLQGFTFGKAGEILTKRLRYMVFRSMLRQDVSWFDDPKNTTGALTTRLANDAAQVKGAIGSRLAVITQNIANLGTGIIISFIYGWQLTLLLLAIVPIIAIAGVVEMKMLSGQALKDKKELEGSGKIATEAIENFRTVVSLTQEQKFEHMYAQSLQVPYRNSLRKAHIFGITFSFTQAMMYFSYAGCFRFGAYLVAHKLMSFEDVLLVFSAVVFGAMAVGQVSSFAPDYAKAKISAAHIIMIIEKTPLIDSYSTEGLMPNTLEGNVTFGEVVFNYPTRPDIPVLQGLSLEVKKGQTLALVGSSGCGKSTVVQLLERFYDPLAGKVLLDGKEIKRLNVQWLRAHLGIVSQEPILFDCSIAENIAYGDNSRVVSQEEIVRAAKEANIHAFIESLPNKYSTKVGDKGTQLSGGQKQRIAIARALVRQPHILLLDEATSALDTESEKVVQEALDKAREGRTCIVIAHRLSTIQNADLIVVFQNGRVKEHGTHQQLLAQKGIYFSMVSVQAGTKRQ

[10] = KB cells, read-out: Km or IC50, Competition (14C-GP)
[11] = own data, read-out: Km or IC50, Direct Uptake
[12] = 2.5 nM 3H-vinblastine, 250 μM verapamil

T2 sequence (Q01650 whole entry): as the sequence (Q01650 whole entry, species assumed) above
T2 sequence (P08195 102-630 partner): as the sequence (P08195 102-630 partner, species assumed) above

For `NCC(CC(=O)O)c1ccc(Cl)cc1` (stereo not shown) [Baclofen], the “Reported Affinity for LAT1” value [1] is given as 0.25 mM.

For `NC1(C(=O)O)CC2CCC1C2` (stereo not shown) [Bicyclohexane amino acid], the “Reported Affinity for LAT1” value [1] is listed as 0.18 mM.

`NCC1(CC(=O)O)CCCCC1` [Gabapentin] showed a pIC50 [2] of 3.68, a pIC50 [3] of 3.40 and a Km [4] of 500 µM. For the same molecule, the “Reported Affinity for LAT1” value [1] was 0.15 mM, the “Km or IC50, Radiolabel Uptake or Competition” value [5] was 340 µM and the Km [6] was 160 µM. The Km ([7]; read-out: Km or IC50, Direct Uptake, own data) was 140 µM.

With `N[C@@H](Cc1ccc(O)c(O)c1)C(=O)O` [L-dopa] the pIC50 [2, 10] was 3.72, the Km [7, 11] was 66 µM and the “3H-L-dopa uptake into oocytes expressing LAT1 and 4F2HC versus noninjected controls” value [8] was “higher levels”.

For `CC(C)C[C@H](N)C(=O)O` [Leucine], the “Reported Affinity for LAT1” value [1] is given as 0.22 mM.

For `CSCC[C@H](N)C(=O)O` [Methionine], the “Reported Affinity for LAT1” value [1] is given as 0.25 mM.

Molecule `N[C@@H](Cc1ccccc1)C(=O)O` [Phenylalanine] has a pIC50 [2, 10] of 4.00, a pIC50 ([3]; HEK-LAT1 cells, read-out: Km or IC50, Competition (3H-GP)) of 3.80 and a Km [4] of 140 µM. For the same molecule, the “Reported Affinity for LAT1” value [1] was 0.025 mM, the “Km or IC50, Radiolabel Uptake or Competition” value [5] was 12.5 to 14.2 µM and the Km [6] was 14.5 µM. For the same molecule, the Km [7, 11] was 25 µM.

For `N[C@@H](Cc1c[nH]c2ccccc12)C(=O)O` [Tryptophan], the “Reported Affinity for LAT1” value [1] is given as 0.35 mM.

With `CC[C@]1(O)C[C@@H]2CN(CCc3c([nH]c4ccccc34)[C@@](C(=O)OC)(c3cc4c(cc3OC)N(C)[C@H]3[C@@](O)(C(=O)OC)[C@H](OC(C)=O)[C@]5(CC)C=CCN6CC[C@]43[C@@H]65)C2)C1` [vinblastine] the PgP substrate status [9] was “is a substrate of PgP”, the “Apical to basolateral transport in the presence of verapamil” value [9, 12] was “strongly increased” and the “Basolateral to apical transport in the presence of verapamil” value [9, 12] was “strongly decreased”.
